Measurements: PubChem BioAssay AID743359 (Molecular Libraries Program, Specialized Chemistry Center, …, 2014)
Activity calls are given as the source filed them.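 Rule for the calls: active = compounds whose half-maximal inhibitory concentration IC50 is 20 µM or lower; inactive = the rest.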

system: isolated mouse liver mitochondria, Ca2+ swelling, A540 20 min; assay: mtPTP inhibitors blocking calcium-induced swelling, dose response, dry powder samples, uHTS hits, absorbance (AID 743359)

Compound | IC50
COc1ccc(Cl)cc1S(=O)(=O)Nc1ccc(CCN2CCCCC2)cc1 | > 50 µM (inactive)
COc1ccc(NC(=O)c2cc(-c3ccc(Cl)cc3)on2)cc1Cl | > 50 µM (inactive)
O=C(Nc1ccc(CN2CCCCC2)cc1)c1ccc(Cl)c(OCc2ccccc2)c1 | < 0.391 µM
CCN(C(=O)c1cc(Cl)ccc1OC)c1ccccc1 | > 50 µM (inactive)
CCN(CC)c1ccc(NC(=O)c2ccc(OC)c(Cl)c2)cc1 | > 50 µM (inactive)
COc1ccc(Cl)cc1C(=O)Nc1ccc(CCN2CCN(C)CC2)cc1 | 10.7 µM
COc1ccc(Cl)cc1C(=O)Nc1ccc(N2CCN(C)CC2)cc1 | 6.13 µM
CC(C)c1cc(C(=O)Nc2ccc(F)cc2F)no1 | 24 µM (inactive)
O=S(=O)(Nc1ccc(CCN2CCCCC2)cc1)c1ccc(F)c(Cl)c1 | > 50 µM (inactive)
COc1ccc(Cl)c(C(=O)Nc2cccc(CN3CCN(C(=O)OC(C)(C)C)CC3)c2)c1 | > 50 µM (inactive)
Cc1cc(NC(=O)c2cc(-c3ccc(F)cc3)on2)no1 | > 50 µM (inactive)
O=C(Nc1ccc(F)cc1F)c1cc(-c2ccccc2)on1 | > 50 µM (inactive)
O=C(Nc1cc(Cl)ccc1Cl)c1cc(-c2cccc(O)c2)on1 | 1.6 µM
COc1ccccc1C(=O)Nc1ccc(C(=O)N2CCCCC2)cc1 | > 50 µM (inactive)
CN1CCN(c2ccc(NC(=O)c3ccc(OCc4ccccc4)cc3)cc2)CC1 | > 50 µM (inactive)
COc1ccc(Cl)cc1C(=O)Nc1ccc(N2CCOCC2)cc1 | > 50 µM (inactive)
CN1CCN(Cc2ccc(NC(=O)c3cccc(OCc4ccccc4)c3)cc2)CC1 | 3.31 µM
COc1ccc(Cl)cc1C(=O)Nc1ccc(N(C)C)cc1 | 10.1 µM
COc1ccc(Cl)c(C(=O)Nc2ccc(CCN3CCOCC3)cc2)c1 | > 50 µM (inactive)
O=C(Nc1ccc(CN2CCCCC2)cc1)c1cccc(OCc2ccccc2)c1 | 0.95 µM
COc1ccc(Cl)c(C(=O)Nc2ccc(CCN3CCN(C)CC3)cc2)c1 | > 50 µM (inactive)
COc1ccc(Cl)cc1C(=O)Nc1ccc(CCN2CCOCC2)cc1 | 13.8 µM
O=S(=O)(Nc1ccc(CCN2CCCCC2)cc1)c1cc(Cl)cc(Cl)c1 | 25.1 µM (inactive)
COc1ccc(Cl)cc1S(=O)(=O)Nc1ccc(N2CCN(C)CC2)cc1 | > 50 µM (inactive)
CC1(C)CCN(CCCC(=O)c2ccc(Br)cc2)CC1 | 13.9 µM

Compound | IC50
COc1ccc(C(=O)CCN2CCCC(C)C2)cc1 (centres undefined) | 38 µM (inactive)
O=S(=O)(Nc1ccc(CN2CCCCC2)cc1)c1cc(Cl)cc(Cl)c1 | > 50 µM (inactive)
CN1CCN(CCc2ccc(NS(=O)(=O)c3ccc(F)c(Cl)c3)cc2)CC1 | > 50 µM (inactive)
O=C(Nc1cccc(Cl)c1)c1cc(-c2ccccc2)on1 | 47.2 µM (inactive)
O=C(Nc1cccc(Cl)c1)c1cc(-c2cccc(O)c2)on1 | < 0.391 µM
COc1ccc(NC(=O)c2cc(-c3cccc(O)c3)on2)cc1Cl | < 0.391 µM
COc1ccc(Cl)cc1C(=O)Nc1ccc(CN2CCCCC2)cc1 | 1.72 µM
COc1ccc(Cl)cc1C(=O)Nc1ccc(CN2CCN(C(=O)OC(C)(C)C)CC2)cc1 | 14.9 µM
CC1CCN(CCCC(=O)c2ccc(Br)cc2)CC1 | 40.9 µM (inactive)
O=S(=O)(Nc1ccc(CN2CCCCC2)cc1)c1ccc(F)c(Cl)c1 | > 50 µM (inactive)
O=S(=O)(Nc1ccc(CCN2CCCCC2)cc1)c1cccc(Cl)c1 | > 50 µM (inactive)
COc1cccc(-c2cc(C(=O)Nc3cc(Cl)ccc3C)no2)c1 | 40 µM (inactive)
COc1ccc(Cl)c(C(=O)Nc2ccc(CCN3CCN(C(=O)OC(C)(C)C)CC3)cc2)c1 | > 50 µM (inactive)
O=C(Nc1ccc(CN2CCCCC2)cc1)c1cc(Cl)cc(OCc2ccccc2)c1 | < 0.391 µM
CCCc1cc(C(=O)Nc2ccc(Br)cc2)no1 | > 50 µM (inactive)
CN1CCN(c2ccccc2NC(=O)c2ccc(OCc3ccccc3)cc2)CC1 | 2.3 µM
O=C(Nc1ccc(OCc2ccccc2)c(Cl)c1)c1cc(-c2cccc(O)c2)on1 | > 50 µM (inactive)
CN1CCN(c2ccc(NS(=O)(=O)c3ccc(F)c(Cl)c3)cc2)CC1 | > 50 µM (inactive)
CN1CCN(Cc2ccc(NS(=O)(=O)c3cc(Cl)cc(Cl)c3)cc2)CC1 | 23.3 µM (inactive)
O=C(Nc1ccc(Cl)cc1)c1cc(-c2cccc(O)c2)on1 | 0.423 µM
O=C(Nc1ccc(Cl)cc1)c1cc(-c2ccccc2)on1 | > 50 µM (inactive)
COc1ccc(Cl)cc1C(=O)Nc1ccc(CN2CCNCC2)cc1 | 2.24 µM
COc1ccc(Cl)cc1S(=O)(=O)Nc1ccc(CN2CCCCC2)cc1 | > 50 µM (inactive)
COc1ccc(Cl)cc1C(=O)Nc1ccc(CN2CCN(C)CC2)cc1 | 13.5 µM
COc1ccc(Cl)cc1C(=O)Nc1ccc(CCN2CCCCC2)cc1 | 6 µM

Compound | IC50
CN1CCN(CCc2ccc(NS(=O)(=O)c3cccc(Cl)c3)cc2)CC1 | > 50 µM (inactive)
COc1ccc(Cl)cc1S(=O)(=O)Nc1ccc(CCN2CCN(C)CC2)cc1 | > 50 µM (inactive)
CN1CCN(c2ccc(NS(=O)(=O)c3cc(Cl)cc(Cl)c3)cc2)CC1 | 44.9 µM (inactive)
COc1ccc(Cl)cc1C(=O)Nc1ccccc1 | 6.35 µM (inactive)
COc1ccccc1C(=O)Nc1ccc(CN2CCCCC2)cc1 | 46.5 µM (inactive)
COc1ccc(NC(=O)c2cc(Cl)cc(Cl)c2OC)cc1 | > 50 µM (inactive)
Cc1ccc(-c2cc(C(=O)Nc3cccc(Cl)c3)no2)cc1 | > 50 µM (inactive)
CCc1ccccc1NC(=O)c1cc(-c2ccccc2)on1 | > 50 µM (inactive)
Cc1ccc(NC(=O)c2cc(-c3cccc(O)c3)on2)cc1Cl | 0.83 µM
COc1ccc(Cl)cc1C(=O)Nc1cccc(CN2CCN(C(=O)OC(C)(C)C)CC2)c1 | > 50 µM (inactive)
O=C(Nc1cccc(Cl)c1Cl)c1cc(-c2cccc(O)c2)on1 | 10.4 µM
CCCc1cc(C(=O)Nc2c(F)cc(F)cc2Br)no1 | 4.96 µM
O=C(Nc1ccc(CN2CCCCC2)cc1)c1cc(OCc2ccccc2)ccc1Cl | 2.44 µM
COc1ccc(Cl)cc1C(=O)Nc1ccc(N2CCCCC2)cc1 | > 50 µM (inactive)
COc1ccc(Cl)c(C(=O)Nc2ccc(CCN3CCCCC3)cc2)c1 | > 50 µM (inactive)
CN1CCN(CCc2ccc(NS(=O)(=O)c3cc(Cl)cc(Cl)c3)cc2)CC1 | 47.8 µM (inactive)
O=C(Nc1cc(Cl)cc(Cl)c1)c1cc(-c2cccc(O)c2)on1 | < 0.391 µM
O=C(Nc1ccc(N2CCCCC2)cc1)c1cccc(OCc2ccccc2)c1 | > 50 µM (inactive)
COc1ccc(Cl)cc1C(=O)Nc1cccc(CN2CCNCC2)c1 | 4.74 µM
COc1ccc(Cl)c(C(=O)Nc2ccc(CN3CCN(C(=O)OC(C)(C)C)CC3)cc2)c1 | 18.2 µM (inactive)
COc1c(Cl)cccc1NC(=O)c1cc(-c2cccc(O)c2)on1 | 27.6 µM (inactive)
COc1ccc(Cl)cc1C(=O)Nc1ccc(CCN2CCN(C(=O)OC(C)(C)C)CC2)cc1 | 20.1 µM
COc1ccc(Cl)c(C(=O)Nc2ccc(CN3CCN(C)CC3)cc2)c1 | > 50 µM (inactive)
COc1ccc(/C=C/C(=O)Nc2cccc(Cl)c2)cc1O | < 0.391 µM
CN1CCN(CCc2ccc(NC(=O)c3cccc(OCc4ccccc4)c3)cc2)CC1 | 3.84 µM

Compound | IC50
O=C(Nc1cccc(Cl)c1)c1cc(-c2ccc(Cl)cc2)on1 | > 50 µM (inactive)
O=C(Nc1ccc(Br)cc1)c1cc(C2CC2)on1 | 6.34 µM
CN1CCN(c2ccc(NC(=O)c3cccc(OCc4ccccc4)c3)cc2)CC1 | 1.92 µM
O=C(Nc1ccc(CCN2CCCCC2)cc1)c1cccc(OCc2ccccc2)c1 | 2.3 µM
CN1CCN(c2ccc(NS(=O)(=O)c3cccc(Cl)c3)cc2)CC1 | > 50 µM (inactive)
O=C(Nc1ccccc1C(F)(F)F)c1cc(-c2ccccc2)on1 | > 50 µM (inactive)
O=C(Nc1ccc(CN2CCCCC2)cc1)c1cc(Cl)ccc1O | > 50 µM (inactive)
CC(C)C1CCN(CCCC(=O)c2ccc(Br)cc2)CC1 | 10.3 µM
COc1ccc(Cl)cc1S(=O)(=O)Nc1ccc(CN2CCN(C)CC2)cc1 | > 50 µM (inactive)
COc1ccc(Cl)c(C(=O)Nc2ccc(CN3CCOCC3)cc2)c1 | > 50 µM (inactive)
CN1CCN(Cc2ccc(NS(=O)(=O)c3ccc(F)c(Cl)c3)cc2)CC1 | > 50 µM (inactive)
Cc1ccc(Cl)cc1NC(=O)c1cc(-c2cccc(O)c2)on1 | < 0.391 µM
Cc1cc(NC(=O)c2ccc(-n3cnnc3)cc2)no1 | > 50 µM (inactive)
O=C(Nc1ccc(CN2CCCCC2)cc1)c1cccc(Cl)c1 | 15 µM
CN1CCN(c2ccc(Cl)cc2NC(=O)/C=C/c2cccc(F)c2)CC1 | 0.69 µM
Cc1c(Cl)cccc1NC(=O)c1cc(-c2cccc(O)c2)on1 | < 0.391 µM
C[C@@H]1CCC[C@H](C)N1CCCC(=O)c1ccc(Br)cc1 | > 50 µM (inactive)
CN1CCN(Cc2ccc(NS(=O)(=O)c3cccc(Cl)c3)cc2)CC1 | > 50 µM (inactive)
COc1ccc(Cl)cc1C(=O)Nc1ccc(CN2CCOCC2)cc1 | 15.1 µM
O=S(=O)(Nc1ccc(CN2CCCCC2)cc1)c1cccc(Cl)c1 | > 50 µM (inactive)
O=C(Nc1ccccc1OCc1ccccc1)c1cc(-c2cccc(O)c2)on1 | > 50 µM (inactive)
O=C(Nc1cccc(F)c1)c1cc(-c2cccc(O)c2)on1 | 4.61 µM
COc1ccc(Cl)cc1C(=O)Nc1ccc(CCN2CCNCC2)cc1 | 5.28 µM
O=C(Nc1cc(Cl)ccc1F)c1cc(-c2cccc(O)c2)on1 | < 0.391 µM
